Measurements from US5792635A, “Method of inhibiting the sodium/proton exchanger NHE3 and method of inhibiting growth by administering squalamine” (priority 1995, dated 1998).
≈ marks a conversion by molar mass, not a printed value. Entries after “also recorded” stand apart in the source; their conditions may differ.

Experiments:
[1] = test system: human microvascular cells; assay: Inhibition of endothelial cell cord formation in vitro; type: cell-based; details: for minimal effective concentration: Homo sapiens, Endothelial cell, Table II, read-out: Minimum Effective Concentration, Cord Formation
Source text: Endothelial cells have the capacity in vitro to form tubular aggregates resembling capillaries in various early stages of formation. This conversion occurs under relatively specific conditions, in which essential growth factors along with an effective substratum are provided. It has been shown that both the interaction of growth factors with the endothelial cell and its attachment to a substratum activate the NHE. The activation of this exchanger is believed to be required for subsequent morphologic transformation of the endothelial cell into a multicellular tubular structure.
To assess the effect of compounds on the cord-like structures formed by human microvascular cells when plated in the presence of VEGF (Vascular Endothelial Growth Factor) and basic fibroblast growth factor on a collagen matrix, a standard cord formation assay was used.

[2] = test system: vitelline capillaries of 3- to 5-day chick embryo; assay: Chick embryo vitelline capillary regression assay; type: in vivo; set-up: key to vascular reactivity: +: Vascular reactivity; 0: No vascular reactivity; +/-: Equivocal reactivity; details: for vascular reactivity: 60 minutes
Experimental: (§1) Using the chick embryo vitelline capillaries assay, compounds were tested for their ability to induce capillary regression. Each compound was applied in 0.1 ml of 15% Ficol 400 and PBS onto the embryo, and vascular regression was assessed after 60 minutes.
The 3-day chick embryo consists of an embryonic disc from which numerous vessels emerge and return, forming a "figure 8"-shaped structure--the embryo in the center with vascular loops extending outward over both poles. […] Following a lag period of around 15 minutes, the constriction of continuity between capillary and secondary vessels, generally on the "venous" side, was observed. Continued pulsatile blood flow progressed, resulting in a "swelling" of the blind tube, followed by a pinching off of the remaining connection and formation of an enclosed vascular sac resembling a "blood island." This process progressed until only the largest vessels remained intact.

HM = HM MTT assay (Table II); type: cell-based; details: read-out: Minimum Effective Concentration, HM MTT assay
LLC = LLC MTT assay (Table II); type: cell-based; details: Lewis lung carcinoma, read-out: Minimum Effective Concentration, LLC MTT
chick embryo = assay: Chick embryo diss. assay (Table II); type: in vivo
Experimental: as §1

[3] = test system: L1210 lymphoblastic leukemia cells; assay: Mouse model of leukemia (L1210), survival and hematological profile; details: L1210-inoculated mice
Source text: C57B mice were inoculated with L1210 lymphoblastic leukemia cells at an inoculum that causes leukemia in 100% of animals.

E. Coli = assay: Antibiotic activity, MIC; type: cell-based; details: Escherichia coli
C. albicans = assay: Antibiotic activity, MIC; type: cell-based; details: Candida albicans
P. = assay: Antibiotic activity, MIC; type: cell-based; details: read-out: MIC Values
S. aureus = assay: Antibiotic activity, MIC; type: cell-based; details: Staphylococcus aureus
Xenopus tadpoles = assay: Tadpole assay

C[C@H](CCC(=O)O)[C@H]1CC[C@H]2[C@@H]3[C@H](O)C[C@@H]4C[C@@H](NCCN)CC[C@]4(C)[C@H]3CC[C@]12C [Compound 415]
endothelial cord formation ([1]; 10.0 μg/ml): +/T | activity in vitelline capillary regression assay ([2]; Table 5): especially active

COC(=O)CCC(C)[C@H]1CCC2C3CC[C@@H]4C[C@H](NCCN)CC[C@]4(C)C3C[C@H](O)[C@@]21C (stereo partly drawn) [drawing 114]
minimal effective concentration (HM): 2.4 µg/mL

COC(=O)CCC(C)[C@H]1CCC2C3CC[C@H]4C[C@H](NCCCNCCCCNCCCN)CC[C@]4(C)C3CC[C@@]21C (stereo partly drawn) [drawing 108]
minimal effective concentration (LLC): 6.8 µg/mL | Minimum Effective Concentration, chick embryo diss. assay (chick embryo): > 1 µg

N.N.[Cl][Pt][Cl] [Cisplatin, reference compound]
hematological profile [3]: profound anemia by day 28

CC(CCC(=O)O)[C@H]1CCC2C3C(CC[C@@]21C)[C@@]1(C)CC[C@H](NCCCNCCCCNCCCN)C[C@H]1C[C@H]3O (stereo partly drawn)
minimal effective concentration [1]: > 10 µg/mL

CC(C)CCC[C@@H](C)[C@H]1CC[C@H]2[C@@H]3CC[C@H]4C[C@H](NCCCCN)CC[C@]4(C)[C@H]3CC[C@]12C
MIC (E. Coli): > 256 µg/mL | MIC (C. albicans): 64 µg/mL (≈ 139 µM) | MIC (P.): > 256 µg/mL | MIC (S. aureus): 4 µg/mL (≈ 8.72 µM)

COC(=O)CC[C@@H](C)[C@H]1CC[C@H]2[C@@H]3[C@H](O)C[C@@H]4C[C@@H](NCCCNCCCCNCCCN)CC[C@]4(C)[C@H]3CC[C@]12C [Compound 411]
vascular reactivity ([2]; 0.1 μg applied): 0

COC(=O)CCC(C)[C@H]1CCC2C3CC[C@H]4C[C@@H](NCCCNCCCCNCCCN)CC[C@]4(C)C3CC[C@@]21C (stereo partly drawn) [drawing 99]
minimal effective concentration (HM): 5 µg/mL

CC(CCC(=O)O)[C@H]1CCC2C3C(CC[C@@]21C)[C@@]1(C)CC[C@@H](NCCCNCCCCNCCCN)C[C@H]1C[C@H]3O (stereo partly drawn) [drawing 110]
minimal effective concentration [1]: > 10 µg/mL | minimal effective concentration (HM): 18.1 µg/mL

CC(CCC(=O)O)[C@H]1CCC2C3C(CC[C@@]21C)[C@@]1(C)CC[C@H](NCCN)C[C@H]1C[C@H]3O (stereo partly drawn) [drawing 113]
minimal effective concentration [1]: > 10 µg/mL

CC(COS(=O)(=O)O)C(=O)CC[C@@H](C)[C@H]1CC[C@H]2[C@@H]3[C@H](O)C[C@H]4C[C@@H](NCCCNCCCCN)CC[C@]4(C)[C@H]3CC[C@]12C (single isomer, unassigned) [Compound 1360]
effect on chick embryo blood ([2]; within 20 minutes): the blood circulating through the embryonic vessels exhibited a brighter red color | observed response in tadpole (Xenopus tadpoles; 10 μg/ml, stage 59-60 Xenopus): Swelling and lysis of certain erythrocytes occurred; also recorded: Subsequent tissue breakdown occurred in areas of tail surrounding these nuclear plugs; also recorded: extensive vasocclusion occurred within 60 minutes throughout the tail

CC(CCC(=O)O)[C@H]1CCC2C3C(CC[C@@]21C)[C@@]1(C)CC[C@H](NCCCNCCCCN)C[C@@H]1C[C@H]3O (stereo partly drawn)
Minimum Effective Concentration, chick embryo diss. assay (chick embryo): > 10 µg

C[C@H](CCC(=O)O)[C@H]1CC[C@H]2[C@@H]3[C@H](O)C[C@@H]4C[C@@H](NCCCNCCCCNCCCN)CC[C@]4(C)[C@H]3CC[C@]12C [Compound 413]
endothelial cord formation ([1]; 0.1 μg/ml): - | vascular reactivity ([2]; 1 μg applied): 0 | functional similarity in tadpole assay (Xenopus tadpoles; Xenopus tadpole assay): effects like those produced by compound 1436

COC(=O)CCC(C)[C@H]1CCC2C3C(CC[C@@]21C)[C@@]1(C)CC[C@@H](NCCN)C[C@H]1C[C@H]3O (stereo partly drawn) [drawing 93]
minimal effective concentration [1]: 10 µg/mL | Minimum Effective Concentration, chick embryo diss. assay (chick embryo): 0.01 µg | minimal effective concentration (HM): 2.6 µg/mL

CC(C)[C@@H](CC[C@@H](C)[C@H]1CC[C@H]2[C@@H]3[C@H](O)C[C@H]4C[C@@H](NCCCNCCCCNCCCN)CC[C@]4(C)[C@H]3CC[C@]12C)OS(=O)(=O)O [drawing 119]
minimal effective concentration (LLC): 16.7 µg/mL | minimal effective concentration (HM): 6.9 µg/mL

C[C@H](CCC(=O)O)[C@H]1CC[C@H]2[C@@H]3[C@H](O)C[C@@H]4C[C@H](NCCCNCCCCNCCCN)CC[C@]4(C)[C@H]3CC[C@]12C [Compound 412]
endothelial cord formation ([1]; 10.0 μg/ml): + | functional similarity in tadpole assay (Xenopus tadpoles; Xenopus tadpole assay): pharmacologic activity similar to that seen for FX 3

C[C@H](CCC(=O)O)[C@H]1CC[C@H]2[C@@H]3[C@H](O)C[C@@H]4C[C@H](NCCN)CC[C@]4(C)[C@H]3CC[C@]12C [Compound 414]
vascular reactivity ([2]; 1 μg applied): 0 | functional similarity in tadpole assay (Xenopus tadpoles; Xenopus tadpole assay): pharmacologic activity similar to Fraction 1 | potency in tadpole assay relative to Fraction 1 (Xenopus tadpoles; Xenopus tadpole assay): potencies comparable to that of Fraction 1

CC(CCC(=O)O)[C@H]1CCC2C3C[C@@H](O)[C@H]4C[C@@H](NCCN)CC[C@]4(C)C3CC[C@@]21C (stereo partly drawn) [drawing 105]
Minimum Effective Concentration, chick embryo diss. assay (chick embryo): 1 µg

CC(C)CCCC(C)[C@H]1CCC2C3C(CC[C@@]21C)[C@@]1(C)CC[C@@H](NCCCNCCCCN)C[C@@H]1C[C@H]3O (stereo partly drawn) [drawing 86]
Minimum Effective Concentration, chick embryo diss. assay (chick embryo): > 10 µg | minimal effective concentration (HM): 4 µg/mL

CC(C)CCCC(C)[C@H]1CCC2C3C(CC[C@@]21C)[C@@]1(C)CC[C@H](N)C[C@@H]1C[C@H]3O (stereo partly drawn) [drawing 88]
Minimum Effective Concentration, chick embryo diss. assay (chick embryo): 1 µg

COC(=O)CCC(C)[C@H]1CCC2C3C[C@@H](O)[C@H]4C[C@H](NCCN)CC[C@]4(C)C3CC[C@@]21C (stereo partly drawn) [drawing 103]
Minimum Effective Concentration, chick embryo diss. assay (chick embryo): > 1 µg

COC(=O)CCC(C)[C@H]1CCC2C3CC[C@@H]4C[C@H](NCCCNCCCCNCCCN)CC[C@]4(C)C3C[C@H](O)[C@@]21C (stereo partly drawn) [drawing 106]
Minimum Effective Concentration, chick embryo diss. assay (chick embryo): 1 µg

CC(C)[C@@H](CC[C@@H](C)[C@H]1CC[C@H]2[C@@H]3[C@H](O)C[C@H]4C[C@@H](NCCCNCCCCN)CC[C@]4(C)[C@H]3CC[C@]12C)OS(=O)(=O)O [drawing 116]
minimal effective concentration (HM): 7.8 µg/mL

CC(CCC(=O)O)[C@H]1CCC2C3CC[C@H]4C[C@@H](NCCCNCCCCN)CC[C@]4(C)C3CC[C@@]21C (stereo partly drawn)
Minimum Effective Concentration, chick embryo diss. assay (chick embryo): 0.001 µg | minimal effective concentration (HM): 13.8 µg/mL

COC(=O)CC[C@@H](C)[C@H]1CC[C@H]2[C@@H]3[C@H](O)C[C@@H]4C[C@@H](NCCN)CC[C@]4(C)[C@H]3CC[C@]12C [Compound 409]
vascular reactivity ([2]; 1 μg applied): 0 | functional similarity in tadpole assay (Xenopus tadpoles; Xenopus tadpole assay): functionally similar to compound 1437

CC(C)CCC[C@@H](C)[C@H]1CC[C@H]2[C@@H]3CC[C@H]4C[C@@H](NCCCCN)CC[C@]4(C)[C@H]3CC[C@]12C
MIC (E. Coli): > 256 µg/mL | MIC (C. albicans): > 256 µg/mL | MIC (P.): > 256 µg/mL | MIC (S. aureus): 16 µg/mL (≈ 34.9 µM)

CC(C)CCCC(C)[C@H]1CCC2C3C(CC[C@@]21C)[C@@]1(C)CC[C@H](NCCCNCCCCN)C[C@@H]1C[C@H]3O (stereo partly drawn) [drawing 87]
Minimum Effective Concentration, chick embryo diss. assay (chick embryo): 1.10 µg

C[C@H](CCC(=O)O)[C@H]1CC[C@H]2[C@@H]3[C@H](O)C[C@H]4C[C@@H](NCCCNCCCCN)CC[C@]4(C)[C@H]3CC[C@]12C [Compound 381]
vascular reactivity ([2]; 1 μg applied): 0

CC(CCCOS(=O)(=O)O)[C@H]1CCC2C3CC[C@H]4C[C@@H](NCCCNCCCCN)CC[C@]4(C)C3CC[C@@]21C (stereo partly drawn)
Minimum Effective Concentration, chick embryo diss. assay (chick embryo): > 10 µg

CC(CCC(=O)O)[C@H]1CCC2C3CC[C@@H]4C[C@H](NCCN)CC[C@]4(C)C3C[C@H](O)[C@@]21C (stereo partly drawn) [drawing 115]
Minimum Effective Concentration, chick embryo diss. assay (chick embryo): > 1 µg

COC(=O)CCC(C)[C@H]1CCC2C3C(CC[C@@]21C)[C@@]1(C)CC[C@H](NCCCNCCCCNCCCN)C[C@H]1C[C@H]3O (stereo partly drawn) [drawing 109]
minimal effective concentration [1]: 10 µg/mL | Minimum Effective Concentration, chick embryo diss. assay (chick embryo): > 1 µg

CC(C)C(O)CC[C@@H](C)[C@H]1CC[C@H]2[C@@H]3[C@H](O)C[C@H]4C[C@@H](NCCCNCCCCN(C)C)CC[C@]4(C)[C@H]3CC[C@]12C (stereo partly drawn)
MIC (P.): 129 µg/mL (≈ 224 µM)
